# pIC50: −log10 of the molar value. Like-named read-outs stand apart in the source and are kept apart here.
# Assays:
# Caco-2 = Caco-2 permeability; assay type: in vitro ADME
# Source text: Several model systems are available, employing monolayers of various cell types, for evaluation of active transport of pharmaceutically active substances. For example, monolayers of Caco-2 intestinal epithelial cells can be used to evaluate active transport of substances between the intestine and the bloodstream. When plated on a surface which allows the flow of material from apical to basolateral and vice versa, such cells form a biological membrane which can be used to simulate physiological absorption and bio-availability. In another example, mouse brain capillary endothelial cell (MBEC) lines have been established to evaluate active transport in and out of the central nervous system. Another example of such cells is HT29 human colon carcinoma cells. Further, monolayers expressing particular transporter proteins can be established using transfected cells. For example, Sasaki et al (2002) J. Biol. Chem. 8:6497 used a double-transfected Madin-Darby canine kidney cell monolayer to study transport of organic anions.
# PAMPA permeability = assay type: in vitro ADME
# Solubility = assay type: physicochemical
# Non-specific binding = assay type: in vitro ADME
# PDE5 = PDE5 (Homo sapiens, UniProt O76074); experiment: Phosphodiesterase inhibition PDE-5 human; assay type: biochemical
# Description: (§1) Phosphodiesterase inhibition was determined by methods known to one of skill in the art.
# Cytotox GC50 = assay type: cell-based
# RLM stability T1/2 = assay type: in vitro ADME; conditions: rat, liver microsomes
# PDE-1 = experiment: Phosphodiesterase inhibition PDE-1; assay type: biochemical
# Description: as §1
# PDE-3 = experiment: Phosphodiesterase inhibition PDE-3; assay type: biochemical
# Description: as §1
# PDE-5 = PDE-5 (Bos taurus, UniProt Q28156); experiment: Phosphodiesterase inhibition PDE-5 bovine; assay type: biochemical
# Description: as §1
# PDE-6 = experiment: Phosphodiesterase inhibition PDE-6; assay type: biochemical
# Description: as §1
# Cytotox LC50 = conditions: read-out: Cytotox LC50 Acute
# [1] = pH 2.7, aqueous buffer, read-out: Solubility pH 2.7
# [2] = pH 7.4, aqueous buffer, read-out: Solubility pH 7.4
Caco-2 AtoB (Caco-2),Caco-2 BtoA (Caco-2),Non-Spec Binding (Non-specific binding) [%],SMILES,PAMPA Hex (PAMPA permeability),solubility (Solubility; [1]) [µM],solubility (Solubility; [2]) [µM],pIC50 (PDE5),Cytotox GC50 (Cytotox GC50) [nM],CC50 (in vitro) [nM],half-life (RLM stability T1/2) [min],pIC50 (PDE-1),pIC50 (PDE-3),pIC50 (PDE-5),pIC50 (PDE-6),CC50 (Cytotox LC50) [nM],PAMPA Lec (PAMPA permeability)
11.16 10^−6,55.15 10^−6,7.3,CCCc1nc(C)c2c(=O)[nH]c(-c3cc(S(=O)(=O)N(C)CC(=O)N4CCOCC4)ccc3OCC)nn12 [Compound 6],0.78 10^−6,> 100,> 100,9.17,–,–,–,–,–,–,–,–,–
4.35 10^−6,35.58 10^−6,2.6,CCCc1nc(C)c2c(=O)[nH]c(-c3cc(S(=O)(=O)N(C)CC(=O)N4CCN(C)CC4)ccc3OCC)nn12 [Compound 7],0.18 10^−6,> 100,> 100,9.27,–,–,–,–,–,–,–,–,–
–,–,–,CCCc1nc(C)c2c(=O)[nH]c(-c3cc(S(=O)(=O)N[C@@H](C)C(=O)N(C)C)ccc3OCC)nn12 [Compound 17],0.26 10^−6,70,78.4,9.18,100000,≥ 100000,–,–,–,–,–,–,–
–,–,–,CCCc1nc(C)c2c(=O)[nH]c(-c3cc(S(=O)(=O)N(C)[C@H](C)C(=O)NC)ccc3OCC)nn12 [Compound 14],0.47 10^−6,62.6,64,9.46,88000,≥ 100000,–,–,–,–,–,–,–
42.03 10^−6,77.41 10^−6,19,CCCc1nc(C)c2c(=O)[nH]c(-c3cc(S(=O)(=O)N(C)CC(=O)N(CC)CC)ccc3OCC)nn12 [Compound 8],21.81 10^−6,> 100,> 100,9.11,–,–,15,–,–,–,–,–,–
–,–,–,CCCc1nc(C)c2c(=O)[nH]c(-c3cc(S(=O)(=O)N(CC)CC(=O)N(CC)CC)ccc3OCC)nn12 [Compound 10],67.04 10^−6,77.9,78.5,9.49,–,–,–,–,–,–,–,–,–
5.15 10^−6,31.45 10^−6,–,CCCc1nc(C)c2c(=O)[nH]c(-c3cc(S(=O)(=O)N(C)CC(=O)NC)ccc3OCC)nn12 [Compound 21],0.24 10^−6,> 100,> 100,9.60,–,–,–,–,–,–,–,–,–
–,–,–,CCCc1nc(C)c2c(=O)[nH]c(-c3cc(S(=O)(=O)N(C)[C@@H](C)C(=O)NC)ccc3OCC)nn12 [Compound 13],0.42 10^−6,69.4,74.6,9.77,94000,≥ 100000,–,–,–,–,–,–,–
2.97 10^−6,25.95 10^−6,7,CCCc1nc(C)c2c(=O)[nH]c(-c3cc(S(=O)(=O)N(C)CC(=O)N(C)CC(=O)N(C)C)ccc3OCC)nn12 [Compound 4],0.47 10^−6,112,109,9.96,–,–,64,–,–,10.08,–,–,0.056 10^−6
2.33 10^−6,11.31 10^−6,9.8,CCCc1nc(C)c2c(=O)[nH]c(-c3cc(S(=O)(=O)N(C)CC(=O)N(C)CCN(C)C)ccc3OCC)nn12 [Compound 9],0.03 10^−6,> 100,> 100,8.82,–,–,–,–,–,–,–,–,–
19.4 10^−6,60.2 10^−6,–,CCCc1nc(C)c2c(=O)[nH]c(-c3cc(S(=O)(=O)N4CCCC4C(=O)N(C)C)ccc3OCC)nn12 (centres unmarked) [Compound 5],13.18 10^−6,100,93,8.64,–,–,30.1,–,–,8.80,–,–,–
–,–,–,CCCc1nc(C)c2c(=O)[nH]c(-c3cc(S(=O)(=O)N[C@H](C)C(=O)N(C)C)ccc3OCC)nn12 [Compound 18],0.18 10^−6,70.3,75.8,9.44,100000,≥ 100000,–,–,–,–,–,–,–
–,–,–,CCCc1nc(C)c2c(=O)[nH]c(-c3cc(S(=O)(=O)N(C)C4(C(=O)N(C)C)CC4)ccc3OCC)nn12 [Compound 16],3.41 10^−6,74.7,82.5,9.38,100000,≥ 100000,–,–,–,–,–,–,–

SMILES,Caco-2 AtoB (Caco-2),Caco-2 BtoA (Caco-2),Non-Spec Binding (Non-specific binding) [%],PAMPA Hex (PAMPA permeability),solubility (Solubility; [1]) [µM],solubility (Solubility; [2]) [µM],pIC50 (PDE5),Cytotox GC50 (Cytotox GC50) [nM],CC50 (in vitro) [nM],half-life (RLM stability T1/2) [min],pIC50 (PDE-1),pIC50 (PDE-3),pIC50 (PDE-5),pIC50 (PDE-6),CC50 (Cytotox LC50) [nM],PAMPA Lec (PAMPA permeability)
CCCc1nc(C)c2c(=O)[nH]c(-c3cc(S(=O)(=O)N(C)C(C)(C)C(=O)NC)ccc3OCC)nn12 [Compound 15],6.8 10^−6,34.9 10^−6,–,0.25 10^−6,–,–,9.59,95000,≥ 100000,–,–,–,–,–,–,–
CCCc1nc(C)c2c(=O)[nH]c(-c3cc(S(=O)(=O)N(C)C(C)(C)C(=O)N(C)C)ccc3OCC)nn12 [Compound 3],28.85 10^−6,58.45 10^−6,14.3,9.11 10^−6,> 100,> 100,9.80,100000,≥ 100000,72.7,8.00,6.39,9.86,8.77,100000,–
CCCc1nc(C)c2c(=O)[nH]c(-c3cc(S(=O)(=O)N(C)[C@H](C)C(=O)N(C)C)ccc3OCC)nn12 [Compound 2],33.33 10^−6,61.33 10^−6,20.7,18.2 10^−6,> 100,> 100,10.40,94600,≥ 100000,32.6,7.89,6.29,10.00,9.22,100000,–
CCCc1nc(C)c2c(=O)[nH]c(-c3cc(S(=O)(=O)N(C)CC(=O)N(C)C)ccc3OCC)nn12 [Compound 1],17.46 10^−6,48.88 10^−6,11.07,5.49 10^−6,> 100,96.1,10.01,76700,75000,22,7.60,6.01,9.91,8.46,100000,0.128 10^−6
CCCc1nc(C)c2c(=O)[nH]c(-c3cc(S(=O)(=O)N(C)[C@@H](C)C(=O)N(C)C)ccc3OCC)nn12 [Compound 12],33.39 10^−6,50.43 10^−6,30.7,13.93 10^−6,96,100,9.53,99300,≥ 100000,32.2,–,–,–,–,100000,–
CCCc1nc(C)c2c(=O)[nH]c(-c3cc(S(=O)(=O)NC(C)(C)C(=O)N(C)C)ccc3OCC)nn12 [Compound 19],2.43 10^−6,33 10^−6,–,0.17 10^−6,> 100,7.1,9.71,100000,≥ 100000,–,–,–,–,–,–,–
